Results reported in PMC9823934, “New Class of Benzodiazepinone Derivatives as Pro-Death Agents Targeting BIR Domains in Cancer Cells” (Molecules, 2023).
Where two headings read alike, the source gives them in different places.

Tests used:
[1] = target: cIAP2-BIR1 (Homo sapiens, UniProt Q13489); test: Trp fluorescence binding assay on cIAP2-BIR1
Experimental: (§1) The binding of FC2 derivatives to the BIR1 domains was assessed by in vitro fluorimetric assays.
(§2) The fluorescence intensity emitted by XIAP-BIR1 Trp73 or cIAP2-BIR1 Trp76 was measured by varying the concentration of the different ligands. The tests were performed with a spectral fluorimeter (Varian Cary Eclipse Fluorescence Spectrophotometer, Agilent Technologies), recording the fluorescence emission spectra between 300 and 400 nm (excitation 280 nm). XIAP-/ cIAP2-BIR1 protein samples were concentrated at 5 μM.
(§3) All the analyses were performed with GraFit version 5 (Erithacus Software Ltd., Horley, UK).

[2] = system: MDA-MB-231 cells; test: Cell viability assay (PrestoBlue) in MDA-MB-231, with or without TNF; assay type: cell-based, human; details: 48 h treatment
Experimental: MDA-MB-231 cells (human breast adenocarcinoma cell line) were grown in standard conditions (37 °C, 5% CO2) in RPMI medium supplemented with 10% serum, 1 mg·mL^−1 penicillin, 100 μg·mL^−1 streptomycin and 2 mM l-glutamine. Cell viability was evaluated by using PrestoBlue^TM Cell Viability Reagent (Thermo Fisher Scientific, Rodano, Italy). Resazurin, the active nontoxic and non-fluorescent ingredient, is continuously converted in resorufin, a red fluorescent compound, in viable cells. Cells were seeded on black-wall, clear bottom 96-well microplates at a density of 50,000 cells/well. After 24 h, cells were treated with the FC2 derivatives from 1.5 μM to 100 μM (vehicle, DMSO) in the absence or presence of TNF at the concentration of 50 ng/mL. After 48 h, the fluorescence was determined using a fluorescence plate reader (Tristar2 S, Berthold Technologies, Bad Wildbad, Germany) equipped with 560 nm excitation and 585 nm emission filters. At least five replicates were performed for each condition. The EC50, was calculated plotting the percentage of cell survival against the compound concentration (A) and fitting the data with: % survival=Tmax−TminA/A+EC50+Tmin where Tmax and Tmin are the maximum and minimum effect induced by the compounds. Analysis was performed with IgorPro 8.04 software (Lake Oswego, OR, USA).

[3] = target: XIAP-BIR1 (Homo sapiens, UniProt P98170); test: Trp fluorescence binding assay on XIAP-BIR1
Experimental: as §1, §2, §3

[4] = Homo sapiens, MDA-MB-231, 48 h, MDA-MB-231, in combination with 50 ng/mL TNF, read-out: EC50 (+TNF)
[5] = Homo sapiens, MDA-MB-231, 48 h, MDA-MB-231, single agent, read-out: EC50
[6] = read-out: Kd (cIAP2-BIR1), Trp fluorescence titration, 23 °C, pH 8.0
[7] = read-out: Kd (XIAP-BIR1), Trp fluorescence titration, 23 °C, pH 8.0
[8] = Homo sapiens, MDA-MB-231, in combination with 50 ng/mL TNF, read-out: EC50 (+TNF)
[9] = Homo sapiens, MDA-MB-231, single agent, read-out: EC50

XIAP-BIR1, sequence (P98170 10-99 limits assumed): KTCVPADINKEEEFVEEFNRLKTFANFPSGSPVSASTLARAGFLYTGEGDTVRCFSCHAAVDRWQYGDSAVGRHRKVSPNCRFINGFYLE
cIAP2-BIR1, sequence (Q13489 26-99 limits assumed): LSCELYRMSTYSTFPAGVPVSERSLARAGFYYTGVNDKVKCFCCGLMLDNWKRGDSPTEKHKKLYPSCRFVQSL

Structure (SMILES)	Kd [1] [µM]	EC50 [2, 4] [µM]	EC50 [2, 5] [µM]	Kd [3] [µM]	EC50 ([2]; MDA-MB-231, single agent, read-out: EC50) [µM]	Kd [1, 6] [µM]	Kd [3, 7] [µM]	EC50 [2, 8] [µM]	EC50 [2, 9] [µM]	EC50 ([2]; MDA-MB-231, single agent)
O=C1CCCC2=C1C(c1cccs1)Nc1ccc(C(=O)c3ccccc3)cc1N2 (centres unmarked) [4b, 7-benzoyl-11-(thiophen-2-yl)-2,3,4,5,10,11-hexahydro-1H-dibenzo[b,e][1,4]diazepin-1-one]	46.3 ± 24.8	9.2 ± 5.75	21.9 ± 8.17	30 ± 7.47						
Cc1ccc(C2Nc3ccc(C(=O)c4ccccc4)cc3NC3=C2C(=O)CCC3)o1 (centres unmarked) [4c, 7-benzoyl-11-(5-methylfuran-2-yl)-2,3,4,5,10,11-hexahydro-1H-dibenzo[b,e][1,4]diazepin-1-one]	> 50	45.3 ± 3.75	65	> 50	65.1 ± 2.43					
COc1ccc(C2Nc3ccc(C(=O)c4ccccc4)cc3NC3=C2C(=O)CCC3)cc1 (centres unmarked) [4g]		36.3 ± 10.4	67.2 ± 7.6	18 ± 5.4						
O=C1CCCC2=C1C(c1ccc(Cl)cc1)Nc1ccc(C(=O)c3ccccc3)cc1N2 (centres unmarked) [4i]	> 50	22.2 ± 6.67	25.9 ± 7.03	> 50						
O=C1CCCC2=C1C(c1ccc(O)cc1)Nc1ccc(C(=O)c3ccccc3)cc1N2 (centres unmarked) [4j]		59.7 ± 14.8	48.2 ± 15.1			27.6 ± 3.16	7.26 ± 0.98			
COc1cccc(C2Nc3ccc(C(=O)c4ccccc4)cc3NC3=C2C(=O)CCC3)c1 (centres unmarked) [4k]		13 ± 4.15	10.3 ± 4.63			> 50	> 50			
COc1ccc(C2Nc3ccc(C(=O)c4ccccc4)cc3NC3=C2C(=O)CCC3)cc1O (centres unmarked) [4s]	> 50			> 50				14.6 ± 1.74	15.2 ± 3.63	
COc1cccc(C2Nc3ccc(C(=O)c4ccccc4)cc3NC3=C2C(=O)CCC3)c1O (centres unmarked) [4t]	> 50			> 50						without activity
O=C1CCCC2=C1C(c1ccc(O)c([N+](=O)[O-])c1)Nc1ccc(C(=O)c3ccccc3)cc1N2 (centres unmarked) [4u]						> 50	37.3 ± 4.45	9.53 ± 3.61	17 ± 5.4	
O=C1CCCC2=C1C(c1c[nH]c3ccccc13)Nc1ccc(C(=O)c3ccccc3)cc1N2 (centres unmarked) [FC2, 7-benzoyl-11-(1H-indol-3-yl)-2,3,4,5,10,11-hexahydro-1H-dibenzo[b,e][1,4]diazepin-1-one]								9.08 ± 1.85	11.4 ± 2.08	

The remaining compounds from weak to strong by Kd [1], led by results:

Kd [1] [µM]	EC50 [2, 4] [µM]	EC50 [2, 5] [µM]	Kd [3] [µM]	EC50 ([2]; MDA-MB-231, single agent, read-out: EC50) [µM]	Kd [1, 6] [µM]	Kd [3, 7] [µM]	EC50 [2, 8] [µM]	EC50 [2, 9] [µM]	EC50 ([2]; MDA-MB-231, single agent)	Structure (SMILES)
46 ± 8.33			33.1 ± 1.4				12.8 ± 1.9	7.49 ± 1.65		COc1cc(C2Nc3ccc(C(=O)c4ccccc4)cc3NC3=C2C(=O)CCC3)ccc1O (centres unmarked) [4r]
43.4 ± 13.9	48.8 ± 5.72	22.3 ± 8.67	14.9 ± 3.8							O=C1CCCC2=C1C(c1ccc(C(F)(F)F)cc1)Nc1ccc(C(=O)c3ccccc3)cc1N2 (centres unmarked) [4h]
38.6 ± 3.56	16.1 ± 3.7	18.6 ± 2.56	22 ± 1.18							O=C1CCCC2=C1C(c1cccc(O)c1)Nc1ccc(C(=O)c3ccccc3)cc1N2 (centres unmarked) [4l]
38 ± 2.78			46.4 ± 5.31				26.8 ± 12.5	31.4 ± 11.4		COc1cc(C2Nc3ccc(C(=O)c4ccccc4)cc3NC3=C2C(=O)CCC3)cc([N+](=O)[O-])c1O (centres unmarked) [4v]
27.6 ± 7.3	47.9 ± 9.7	38.9 ± 7.55	> 50							Cc1ccc(C2Nc3ccc(C(=O)c4ccccc4)cc3NC3=C2C(=O)CCC3)cc1 (centres unmarked) [4e, 7-benzoyl-11-(p-tolyl)-2,3,4,5,10,11-hexahydro-1H-dibenzo[b,e][1,4]diazepin-1-one]
26.9 ± 4.3	9.5 ± 4.73	6.92 ± 2.43	15.9 ± 5.2							O=C1CCCC2=C1C(c1ccc(O)c(O)c1)Nc1ccc(C(=O)c3ccccc3)cc1N2 (centres unmarked) [4p]
26.5 ± 1.07			38.1 ± 1.68						loss of activity	Nc1cccc(C2Nc3ccc(C(=O)c4ccccc4)cc3NC3=C2C(=O)CCC3)c1 (centres unmarked) [4n]
21.9 ± 6.2	69.2 ± 8.1	19.6 ± 4.23	4.4 ± 2.2							O=C1CCCC2=C1C(c1ccccc1)Nc1ccc(C(=O)c3ccccc3)cc1N2 (centres unmarked) [4d, 7-benzoyl-11-phenyl-2,3,4,5,10,11-hexahydro-1H-dibenzo[b,e][1,4]diazepin-1-one]
20.5 ± 4							3.82 ± 1.41	5.54 ± 1.03		O=C1CCCC2=C1C(c1cccc([N+](=O)[O-])c1)Nc1ccc(C(=O)c3ccccc3)cc1N2 (centres unmarked) [4m]
16.4 ± 2.9			41.8 ± 11.7				14 ± 2.4	14.7 ± 4.98		O=C1CCCC2=C1C(c1ccc3c(c1)OC(F)(F)O3)Nc1ccc(C(=O)c3ccccc3)cc1N2 (centres unmarked) [4q]
12 ± 2.4	15.4 ± 6.86	13.5 ± 4.67	7.5 ± 2.9							COc1ccc(C2Nc3ccc(C(=O)c4ccccc4)cc3NC3=C2C(=O)CCC3)cc1OC (centres unmarked) [4o]
1.3 ± 0.7	16.9 ± 7.14	42.8 ± 10.1	6.8 ± 1.3							CC1(C)CC(=O)C2=C(C1)Nc1cc(C(=O)c3ccccc3)ccc1NC2c1c[nH]c2ccccc12 (centres unmarked) [4a, 7-benzoyl-11-(1H-indol-3-yl)-3,3-dimethyl-2,3,4,5,10,11-hexahydro-1H-dibenzo[b,e][1,4]diazepin-1-one]
